Test results as given in patent US8107711B2, “User interface method and system for management and control of automated image processing in high content screening or high throughput screening” (Vala Sciences, Inc., priority 2008, dated 2012).

Test system: IL-8 mRNA
Experiment: IL-8 mRNA assay (Quantigene reagent set) quantified by automated image processing
Assay type: cell-based
Source text: Through use of inexpensive reagents and simple protocols a transcription assay can be conducted in which mRNA is synthesized and then captured. The location and number of individual mRNA species captured can be visualized in cells and tissue sections by fluorescence-based detection and quantified by automated image processing.
For visualization in images, a probe is used which binds to target mRNA species with very high specificity. It is possible to generate probes to virtually any known sequence. Preferably, such probes are hybridized to the target mRNAs in cell or tissue samples that have been fixed and permeabilized. A fluorescent reagent may then added, which binds to the probe. When slides and well plates containing cultured cells are processed in this manner, and viewed with fluorescence microscopy, bright spots (mRNA loci) are apparent that correspond to individual copies of the target mRNA.
To quantify gene transcription, the mRNA loci can be individually counted for each cell. While this can be done manually, by loading such images in a general purpose image analysis program, manual analysis is very laborious and time consuming due to fatigue and inconsistency between researchers. A convenient, user-friendly, and accurate alternative may be provided by an image processing algorithm, which may be in the form of a Windows® compatible, Java-based software system, specifically engineered for this application. With reference to FIG. 1, for example, such a system identifies individual cells, and quantifies the number of mRNA loci on a per cell basis in fields of view imaged for nuclei (shown in blue with DAPI staining), and for mRNA (shown in green using fluorescent reagents). Results produced by such a system may be input into a quantitative modeling system (such as a spreadsheet process) in order to organize, quantify, model, and present the results for interpretation and analysis.
FIG. 2 illustrates the performance of an mRNA assay and quantification by an image processing algorithm in an experimental setting, using a Quantigene® reagent set available from Panomics, Inc., Fremont, Calif. and an automated image processing system available from Vala Sciences, Inc. In this assay, cells were exposed to different concentrations of phorbol 12-myristate 13-acetate (PMA), and analyzed for the copy number of IL-8 mRNA. For control cells (exposed to 0 PMA), essentially no IL-8 mRNA were detected (0.05/cell). In contrast, exposure to PMA led to a dramatic increase in the presence of the loci with an EC50 of between 0.1 and 1 ng/ml PMA.
FIG. 6 illustrates in a general way how an image processing algorithm may operate to obtain results from images in the source folder. An example of one such algorithm designed for processing images of mRNA transcription is the CyteSeer™-ViewRNA process available from Vala Sciences, Inc. The algorithm starts with a nuclear image (such as those in the left panels of FIGS. 1 and 2), and identifies all of the nuclei within the field of view. A nuclear mask for each cell is established. […] One or more sets of experimental data may then be calculated by the automated image processing system, on a per cell basis, using the result images or masks. Preferably, these experimental data are presented and arranged according to a file convention and are placed into one or more files that can be transported, loaded, or otherwise made available to a quantitative modeling system (for example, a spreadsheet process). […]

Structure (SMILES): CCCCCCCCCCCCCC(=O)O[C@@H]1[C@@H](C)[C@@]2(O)[C@@H](C=C(CO)C[C@]3(O)C(=O)C(C)=C[C@@H]23)[C@@H]2C(C)(C)[C@]12OC(C)=O [PMA, phorbol 12-myristate 13-acetate]
- RNA spot count (0.1 ng/ml PMA, well E15): 14.3 spots/cell
- fold increase in Area Rm (1 ng/ml PMA vs control well C15): 3000 fold
- RNA spot count (1 ng/ml PMA, well G15): 84.1 spots/cell
- Area Rm, the average area, per cell, of the RNA mask (1 ng/ml PMA, well G15 (control well C15 <1)): > 1100
- fold increase in TII Ri Rm, the total intensity of the spots/cell (PMA vs control (Table in FIG. 12)): 8000 fold
